Laboratory results reported in the CheMixHub ionic liquid set.

Assay: xn = mol fraction of the nth substance listed

CCC[N+]1(C)CCCCC1.O=S(=O)([N-]S(=O)(=O)C(F)(F)F)C(F)(F)F + CCC[N+](C)(C)C.O=S(=O)([N-]S(=O)(=O)C(F)(F)F)C(F)(F)F
101.3 kPa, x2 = 0
Settings | viscosity [mPa·s]
293.15 K | 199
298.15 K | 147
303.15 K | 112
313.15 K | 69
338.15 K | 26.6
343.15 K | 22.9

COCCOCCn1cc[n+](CCC#N)c1.O=S(=O)([N-]S(=O)(=O)C(F)(F)F)C(F)(F)F + CS(C)=O
101.3 kPa
Settings | electrical conductivity [S/m] | viscosity [mPa·s]
293.15 K, x1 = 0.1981 | 0.00634 | 8.12
293.15 K, x1 = 0.2776 | 0.00928 | –
303.15 K, x1 = 0.0989 | 0.00234 | –
303.15 K, x1 = 0.1981 | 0.00768 | –
303.15 K, x1 = 0.2776 | 0.0112 | 9.24
303.15 K, x1 = 0.5029 | 0.0405 | 26.2
303.15 K, x1 = 0.89 | 0.0942 | 83.1
313.15 K, x1 = 0.0989 | 0.00278 | –
313.15 K, x1 = 0.1981 | 0.00939 | –
313.15 K, x1 = 0.798 | 0.148 | 33.2
313.15 K, x1 = 0.89 | 0.125 | 51.5
323.15 K, x1 = 0.0989 | 0.00342 | –
323.15 K, x1 = 0.1981 | 0.0122 | 3.212
323.15 K, x1 = 0.798 | 0.203 | 24.66

[Br-].[Li+] + CCCC[n+]1ccn(C)c1.N#C[S-] + CN1CCCC1=O
298.15 K, 101 kPa
Settings | viscosity [mPa·s]
x2 = 0, x1 = 0.02626 | 2.359
x2 = 0, x1 = 0.05114 | 3.124
x2 = 0, x1 = 0.07535 | 4.344

O=C([O-])C(F)(F)F.O=S(=O)(O)n1cc[n+](S(=O)(=O)O)c1 + CO
electrical conductivity [S/m], 101 kPa
Settings | 288.15 K | 298.15 K | 308.15 K | 313.15 K | 333.15 K
x1 = 0.0052 | – | 1.85 | – | – | –
x1 = 0.02551 | 4.64 | – | 3.89 | 3.76 | 3.25

CC[n+]1ccn(C)c1.O=S(=O)([O-])C(F)(F)F + CS(C)=O + CC#N
viscosity [mPa·s], 100 kPa
Settings | 298.15 K | 303.15 K | 308.15 K | 313.15 K | 318.15 K | 323.15 K
x1 = 0.1068, x2 = 0.8932 | 3.7 | – | – | – | – | –
x1 = 0.2015, x2 = 0.7985 | 5.3 | 4.7 | – | 3.8 | 3.4 | –
x1 = 0.2065, x2 = 0.6555 | 3.5 | – | – | – | – | –
x1 = 0.2333, x2 = 0.6152 | 3.7 | – | – | – | – | –
x1 = 0.2695, x2 = 0.5629 | 4.1 | 3.7 | 3.4 | – | – | –
x1 = 0.3077, x2 = 0.6923 | 7.9 | – | 6.1 | 5.4 | 4.9 | –
x1 = 0.3091, x2 = 0.5059 | 4.6 | 4.2 | 3.9 | 3.5 | – | –
x1 = 0.3343, x2 = 0.4656 | 5.1 | 4.6 | – | 3.8 | 3.5 | –
x1 = 0.361, x2 = 0.4229 | 5.6 | 5 | 4.6 | 4.2 | 3.8 | –
x1 = 0.3948, x2 = 0 | 4.5 | 4.1 | 3.8 | 3.5 | – | –
x1 = 0.4023, x2 = 0.5977 | – | – | 8.9 | 7.8 | 7 | 6.2
x1 = 0.4096, x2 = 0.3523 | 6.7 | 6 | 5.4 | 4.9 | 4.4 | 4.1
x1 = 0.4353, x2 = 0.3096 | 7.4 | 6.6 | – | 5.3 | 4.8 | –
x1 = 0.4741, x2 = 0.2498 | 8.5 | 7.6 | 6.7 | 6 | 5.5 | 5
x1 = 0.4933, x2 = 0.5067 | – | – | – | – | 9.3 | 8.2
x1 = 0.498, x2 = 0 | 7.4 | 6.6 | 6 | 5.4 | 4.9 | –
x1 = 0.5094, x2 = 0.1935 | 9.7 | 8.6 | 7.6 | 6.8 | 6.1 | 5.5
x1 = 0.5368, x2 = 0.1703 | – | 9.5 | 8.4 | 7.5 | 6.7 | 6
x1 = 0.5656, x2 = 0.1458 | – | – | 9.2 | 8.2 | 7.3 | 6.6
x1 = 0.595, x2 = 0 | – | 9.5 | 8.4 | 7.5 | 6.7 | 6
x1 = 0.5961, x2 = 0.12 | – | – | – | 9 | 8 | 7.2
x1 = 0.6284, x2 = 0.0927 | – | – | – | – | 8.9 | 7.9
x1 = 0.6565, x2 = 0.0845 | – | – | – | – | 9.7 | 8.6
x1 = 0.686, x2 = 0.076 | – | – | – | – | – | 9.4
x1 = 0.6936, x2 = 0 | – | – | – | – | 9.5 | 8.3
x1 = 0.7058, x2 = 0.0663 | – | – | – | – | – | 9.9
x1 = 0.9005, x2 = 0 | 34 | – | – | – | – | –
x1 = 0.9008, x2 = 0.0992 | 39 | – | – | – | – | –
x1 = 1, x2 = 0 | 46 | 38 | – | – | – | –

CCCCC[N+](CCCCC)(CCCCC)CCCCC.[Br-] + CCCCCCCCCCCC[N+](C)(C)C.[Br-] + O
viscosity [mPa·s], 100 kPa
Settings | x2 = 5.425e-05, x1 = 0.0001802 | x2 = 0.0001085, x1 = 0.0001801 | x2 = 0.0001627, x1 = 0.0001801 | x2 = 0.000217, x1 = 0.0001801 | x2 = 0.0002712, x1 = 0.0001801 | x2 = 0.0003254, x1 = 0.0001801 | x2 = 0.0003796, x1 = 0.0001801 | x2 = 0.0004339, x1 = 0.0001801 | x2 = 0.0004881, x1 = 0.0001801 | x2 = 0.0005422, x1 = 0.0001801
293.15 K | 1.057 | 1.059 | 1.06 | 1.061 | 1.062 | 1.062 | 1.063 | 1.063 | 1.063 | 1.064
298.15 K | 0.943 | 0.944 | 0.945 | 0.946 | 0.948 | 0.949 | 0.95 | 0.951 | 0.951 | 0.953
303.15 K | 0.825 | 0.826 | 0.826 | 0.827 | 0.827 | 0.827 | 0.828 | 0.828 | 0.828 | 0.829
308.15 K | 0.745 | 0.746 | 0.746 | 0.746 | 0.747 | 0.747 | 0.747 | 0.748 | 0.748 | 0.749
313.15 K | 0.679 | 0.68 | 0.681 | 0.681 | 0.682 | 0.682 | 0.682 | 0.682 | 0.683 | 0.683
318.15 K | 0.624 | 0.625 | 0.625 | 0.625 | 0.626 | 0.626 | 0.626 | 0.626 | 0.626 | 0.627

CCCC[n+]1ccn(C)c1.N[C@@H](CC(=O)O)C(=O)[O-] + CO
101 kPa
Settings | electrical conductivity [S/m]
298.15 K, x2 = 0.2999 | 0.101
298.15 K, x2 = 0.5015 | 0.161
298.15 K, x2 = 0.7957 | 0.64
298.15 K, x2 = 0.8988 | 1.13
303.15 K, x2 = 0.1999 | 0.108
303.15 K, x2 = 0.5949 | 0.241
303.15 K, x2 = 0.6969 | 0.377
308.15 K, x2 = 0.398 | 0.218
308.15 K, x2 = 0.6969 | 0.496
308.15 K, x2 = 0.9214 | 1.39
308.15 K, x2 = 0.975 | 1.36
318.15 K, x2 = 0.1999 | 0.212
318.15 K, x2 = 0.5015 | 0.378
318.15 K, x2 = 0.7957 | 0.98
318.15 K, x2 = 0.8988 | 1.42
